Patent publication US12403117B2, “Stable pharmaceutical composition containing non-steroidal anti-inflammatory drug derivative” (ZHEJIANG YUEJIA PHARMACEUTICALS CO., LTD, priority 2017, dated 2025)
Values joined by “and” are separate entries in the source; they are usually repeats but may differ in a detail not shown here. Equal entries are not always repeated. Each block holds one compound with its values, some of them ahead of it.

What was measured:
Type in all cases: physicochemical
[1] = Stability of aqueous solution of 2-(diethylamino)-ethyl-2-(4-isobutylphenyl) propionate hydrochloride at 25° C.±2° C. (HPLC); details: 10 g in 50 mL sterile water
Description: 10 g of 2-(diethylamino)-ethyl-2-(4-isobutylphenyl) propionate hydrochloride prepared in Example 5 was dissolved in 50 mL of sterile water and placed at 25° C.±2° C. Samples were taken on day 0, week 1, week 2, week 3 and week 4 to detect the contents of the main drug and specific impurities (ibuprofen), wherein the content of the main drug and specific impurities were detected by high-performance liquid chromatography (area normalization). The conditions of HPLC were as follows: • Column: Inertsil ODS-3 (250×4.6 mm, 5 μm) or equivalent • Flow rate: 1.0 ml/min • Column temperature: 33° C. • Wavelength: 264 nm • Injection volume: 10 μl • Mobile phase: (3.065 g sodium acetate+150 ml acetic acid+375 ml water): acetonitrile (35:65).

[2] = Repose angle by injection method
Description: The “repose angle” formed by stacking the powders or particles reflects its fluidity. The term “repose angle” generally refers to the maximum angle formed by the free slope of the layer of the stacked powders or particles and the horizontal plane. The smaller the repose angle, the smaller the friction between the powders or particles, and the better the fluidity. Better fluidity is more convenient for dissolution and use of the powders or particles. Methods for measuring the repose angle are well known to those skilled in the art. The repose angle is measured by an “injection method” in the examples of the invention, that is, the particles flow out of the funnel and fall on the plane to form a cone, and the base angle is the repose angle.

[3] = Dissociation constant
Description: (§1) The physical and chemical properties of the synthesized crystals of 2-(diethylamino)-ethyl-2-acetoxybenzoate hydrochloride are shown in Table 1.

[4] = Stability of aqueous solution of 2-(diethylamino)-ethyl-2-acetoxybenzoate hydrochloride at 2-8° C. (HPLC); details: 5 g in 50 mL sterile water
Description: 5 g of 2-(diethylamino)-ethyl-2-acetoxybenzoate hydrochloride prepared in Example 1 was dissolved in 50 mL of sterile water and placed at 2-8° C. Samples were taken on day 0, month 0.5, month 1, month 2 and month 3 to detect the contents of the main drug and specific impurities (salicylic acid-(2-diethylaminoethyl ester) hydrochloride, acetylsalicylic acid, salicylic acid) and related substances, wherein the content of the main drug and specific impurities were detected by high-performance liquid chromatography (external standard method), and the related substances were detected by high-performance liquid chromatography (principal component self-control method without correction factors). The conditions of HPLC were as follows: • Column: Inertsil ODS-3 (250×4.6 mm, 5 μm) or equivalent • Flow rate: 1.0 ml/min • Column temperature: 33° C. • Wavelength: 276 nm, 303 nm • Injection volume: 10 μl • Mobile phase: water (15 ml of triethylamine+3.5 ml of 10% tetrabutylammonium hydroxide, adding water to 1000 ml): methanol: glacial acetic acid (63:27:10).

[5] = Solubility (physical and chemical properties, Table 1)
Description: as §1

[6] = Acidity: pH value of the aqueous solution; details: 25 ± 0.5° C.

- Ibuprofen (impurity) ([1]; week 0): Not detected
- Main Drug ([1]; week 0): 100.00%
- Unknown peak ([1]; week 0): Not detected
- Ibuprofen (impurity) ([1]; week 1): 0.39%
- Main Drug ([1]; week 1): 99.51%
- Unknown peak ([1]; week 1): 0.10%
- Ibuprofen (impurity) ([1]; week 2): 1.69%
- Main Drug ([1]; week 2): 98.12%
- Unknown peak ([1]; week 2): 0.19%
- Ibuprofen (impurity) ([1]; week 3): 4.04%
- Main Drug ([1]; week 3): 95.83%
- Unknown peak ([1]; week 3): 0.13%
- Unknown peak ([1]; week 4): 0.21%
- Repose angle [2]: 40 °
Compound: CCN(CC)CCOC(=O)C(C)c1ccc(CC(C)C)cc1.Cl (stereo not shown) [2-(diethylamino)-ethyl-2-(4-isobutylphenyl) propionate hydrochloride]

Compound: CCN(CC)CCOC(=O)c1ccccc1OC(C)=O.Cl [2-(diethylamino)-ethyl-2-acetoxybenzoate hydrochloride]
- Dissociation constant [3]: 8.82
- Main Drug ([4]; month 0): 99.48%
- Salicylic acid (impurity) ([4]; month 0): 0.0028%
- Salicylic acid-(2-diethylaminoethyl ester) hydrochloride (impurity) ([4]; month 0): 0.51%
- Main Drug ([4]; month 0.5): 99.32%
- Salicylic acid (impurity) ([4]; month 0.5): 0.0035%
- Salicylic acid-(2-diethylaminoethyl ester) hydrochloride (impurity) ([4]; month 0.5): 0.67%
- Acetylsalicylic acid (impurity) ([4]; month 1): 0.018%
- Main Drug ([4]; month 1): 97.59%
- Salicylic acid (impurity) ([4]; month 1): 0.0044%
- Salicylic acid-(2-diethylaminoethyl ester) hydrochloride (impurity) ([4]; month 1): 2.38%
- Acetylsalicylic acid (impurity) ([4]; month 2): 0.033%
- Main Drug ([4]; month 2): 94.86%
- Salicylic acid (impurity) ([4]; month 2): 0.012%
- Salicylic acid-(2-diethylaminoethyl ester) hydrochloride (impurity) ([4]; month 2): 5.09%
- Acetylsalicylic acid (impurity) ([4]; month 3): 0.042%
- Salicylic acid (impurity) ([4]; month 3): 0.049%
- Main Drug ([4]; month 3, hydrochloride): 86% and 86.55%
- Solubility ([5]; in acetone): slightly soluble
- Solubility ([5]; in ethyl acetate and ether): insoluble
- Solubility ([5]; in water): extremely soluble
- Repose angle [2]: 42°
- Acidity: pH value of the 2% aqueous solution [6]: product at 25 ± 0.5 °C is 4.0-6.0
